Data: patent US8685962B2 (priority 2007, dated 2014)
Where two headings read alike, the source gives them in different places.

Key:
[1] = target: T1, human salivary TSPO (Homo sapiens, UniProt P30536); assay: Competition of TSPO ligands with [3H]PK11195 binding in human saliva; details: for binding affinity lower than that of PK11195: relative to PK11195
T1 construct: from tissue; host or cells: cells pelleted from human saliva samples (volunteers; smokers and non-smokers)
Method: (§1) After 80 minutes of incubation at 4° C., the samples were filtered through Whatman CF/C filters using a vacuum system, washed three times with 4 ml of 5 mM ice-cold phosphate buffer and placed in vials containing 4 ml of Opti-Fluor. Radioactivity was counted after 12 hours with a liquid scintillation analyzer. Specific binding was obtained by subtracting non specific binding from total binding.

[2] = target: T2, TSPO receptors in SCC-25 cell line (Homo sapiens, UniProt P30536); assay: Displacement of [3H]PK11195 from TSPO receptors in SCC-25 cells; format: binding; details: for potency in displacing [3H]PK11195, fold lower than PK11195: SCC-25 membrane, relative to PK11195
T2 construct: endogenous in cells; host or cells: SCC-25
Method: (§2) Cells were scraped from the culture dishes, washed with phosphate-buffered saline (PBS), and centrifuged at 1200 g for 10 minutes. Then the cell pellets were re-suspended in 1 mL of 50 mM phosphate buffer, pH 7.4, and centrifuged at 1200 g for 10 minutes. […] After incubation for 80 minutes at room temperature, samples were filtered under vacuum over Whatman GF/B filters and washed three times with phosphate buffer. Filters were placed in vials containing 4 mL of Opti-Fluor (Packard, Groningen, The Netherlands) and counted for radioactivity in a scintillation counter after 12 hours. The maximal number of binding sites (Bmax) and equilibrium dissociation constants were calculated from the saturation curve of [^3H]

[3] = target: T3, TSPO receptors in SCC-15 cell line (Homo sapiens, UniProt P30536); assay: Displacement of [3H]PK11195 from TSPO receptors in SCC-15 cells; format: binding
T3 construct: endogenous in cells; host or cells: SCC-15
Method: as §2

[4] = tested on: H1299 lung cancer cells; assay: Survival of H1299 cells exposed to cigarette smoke with/without saliva; format: cell-based, human; details: for effect on survival of H1299 cells exposed to CS (in words): CS + 30% saliva
Method: Four control groups, not exposed to tobacco smoke (referred to herein as TS or alternatively, as CS, standing for “cigarette smoke”) were compared to four study groups (similar groups which were also exposed to CS), as detailed hereinafter. The four control groups included the following: a group where the cells were incubated in medium alone and exposed to air (M), a group where the cells were incubated in medium supplemented with whole saliva and exposed to air (M+saliva), a group where the cells where incubated in medium and exposed to CS (M+CS) and a group where the cells were incubated in medium supplemented with saliva and exposed to CS (M+saliva+CS).
During smoke exposure, the cells were put into a smoking sealed chamber (33.5 cm^3) with CS pressure of 0.3 Bar. Control cells were subjected to the same procedures, but exposed only to fresh air. Cells were exposed to CS for one “puff” every 20 minutes for a 2 hours (120 minutes) period (unless indicated otherwise). Cells exposed to air served as control. Cells were used when it becomes confluent and the medium (with/without saliva) volume was compatibly to the dish in use.
In order to examine the possible effect of TSPO receptor ligands on the survival rate of cells exposed to both CS and saliva, the benzodiazepine TSPO ligand, diazepam, was added to cells prior to exposing the cells to CS+30% saliva.

[5] = target: T4, TSPO receptor in saliva (Homo sapiens, UniProt P30536); assay: [3H]PK11195 saturation binding with Scatchard analysis in human saliva; details: n=10
T4 construct: from tissue; host or cells: cells pelleted from human saliva samples (volunteers; smokers and non-smokers)
Method: as §1

[6] = target: T5, TSPO receptors in human tongue cancer cell line SCC-25 (Homo sapiens, UniProt P30536); assay: [3H]PK11195 saturation binding (Scatchard) in SCC-25 cells
T5 construct: Cells were scraped from the culture dishes, washed with phosphate-buffered saline (PBS), and centrifuged; endogenous in cells; host or cells: SCC-25
Method: as §2

[7] = target: T6, TSPO receptors in human tongue cancer cell line SCC-15 (Homo sapiens, UniProt P30536); assay: [3H]PK11195 saturation binding (Scatchard) in SCC-15 cells
T6 construct: endogenous in cells; host or cells: SCC-15
Method: as §2

[8] = target: T7, TSPO receptors in H1299 lung cancer cells (Homo sapiens, UniProt P30536); assay: [3H]PK11195 saturation binding (Scatchard) in H1299 cells
T7 construct: Cells were scraped from the culture dishes, washed with phosphate-buffered saline (PBS), and centrifuged; endogenous in cells; host or cells: H1299
Method: as §2

[9] = target: T4, TSPO receptor in saliva; assay: [3H]PK11195 binding in saliva from heavy smokers and non-smokers; details: for mean TSPO binding: 6 nM ligand
Method: as §1
The effect of long term CS-exposure on the salivary TSPO, of heavy smokers, was investigated. Saliva samples were collected from heavy smokers (smokers group) and from a control group of non-smoking volunteers (control group), and the total protein expression level as well as TSPO binding capacity was evaluated as follows.
The mean TSPO binding was calculated and found to be 53% lower in the smokers group, as compared to the control group (694±264; n=9 and 1,480±1,157; n=16, respectively; see, FIG. 7b). This statistically significant reduction (p<0.05) further supports the results obtained for the in-vitro exposure of saliva cells to CS (detailed above), and point to a CS-related reduced TSPO receptor binding capacity.

[10] = inhibition of [3H]PK11195 binding, human saliva, four independent experiments, read-out: Ki
[11] = 50% inhibition of [3H]PK11195 binding, SCC-25, read-out: IC50
[12] = 50% inhibition of [3H]PK11195 binding, SCC-15, read-out: IC50
[13] = 10^-8 M, medium + 30% saliva, CS 120 minutes

T3 sequence (P30536 whole entry): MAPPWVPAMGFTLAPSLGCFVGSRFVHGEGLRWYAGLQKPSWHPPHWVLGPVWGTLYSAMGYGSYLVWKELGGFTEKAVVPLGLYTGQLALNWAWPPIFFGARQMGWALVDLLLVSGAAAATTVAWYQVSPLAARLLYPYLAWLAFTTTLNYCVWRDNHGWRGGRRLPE
T4 sequence (P30536 whole entry): as above
T1 sequence (P30536 whole entry): as above
T2 sequence (P30536 whole entry): as above
T6 sequence (P30536 whole entry): as above
T5 sequence (P30536 whole entry): as above
T7 sequence (P30536 whole entry): as above

**Q.** For `CN1C(=O)CN=C(c2ccc(Cl)cc2)c2cc(Cl)ccc21` [Ro5-4864, 4-chlorodiazepam], which “binding affinity lower than that of PK11195” value ([1]; human saliva) is on record?
**A.** two orders of magnitude

**Q.** And the Ki [1, 10]?
**A.** 500 nM

**Q.** What about the IC50 [2, 11] of the same compound?
**A.** 666 ± 36 nM

**Q.** And the “potency in displacing [3H]PK11195, fold lower than PK11195” value (“potency … fold lower than PK11195” for short) [2]?
**A.** 74 times

**Q.** What about the IC50 [3, 12] of the same compound?
**A.** 2070 ± 1550 nM

**Q.** `O=C1CN=C(c2ccccc2Cl)c2cc([N+](=O)[O-])ccc2N1` [Clonazepam] was tested. Which “affinity to TSPO (in words)” value ([1]; human saliva) did it give?
**A.** negligible affinity

**Q.** And the “affinity for TSPO (in words)” value ([2]; SCC-25)?
**A.** negligible affinity

**Q.** And the “effect on survival of H1299 cells exposed to CS (in words)” value (“effect on survival” below) ([4]; 10^-7 M)?
**A.** No significant increase in survival levels

**Q.** What about the “effect on survival” value ([4]; 10^-7 M, listed as clonazepam) of the same compound?
**A.** not significantly altered

**Q.** What about the “effect on survival” value ([4]; 10^-8 M) of the same compound?
**A.** did not increase the survival level

**Q.** What about the “decrease of cells survival” value [4, 13] of the same compound?
**A.** 10.65%

**Q.** Which Ki [1] does the source give for `CN1C(=O)CN=C(c2ccccc2)c2cc(Cl)ccc21` [Diazepam] here?
**A.** 4500 nM

**Q.** What about the “binding affinity lower than that of PK11195” value ([1]; human saliva) of the same compound?
**A.** three orders of magnitude

**Q.** What about the IC50 [2] of the same compound?
**A.** 14200 ± 5720 nM

**Q.** What about the “potency … fold lower than PK11195” value [2] of the same compound?
**A.** 1580 times

**Q.** And the IC50 [3]?
**A.** 14100 ± 15200 nM

**Q.** And the “effect on survival” value ([4]; 10^-7 M)?
**A.** significantly increased

**Q.** And the “increase of cell survival” value ([4]; 10^-7 M, medium + 30% saliva, CS 120 minutes)?
**A.** 16%

**Q.** What about the “effect on survival” value ([4]; 10^-8 M) of the same compound?
**A.** significantly increased

**Q.** What about the “increase of cell survival” value [4, 13] of the same compound?
**A.** 17.4%

**Q.** With `CCC(C)N(C)C(=O)c1cc2ccccc2c(-c2ccccc2Cl)n1` (stereo not shown) [[^3H]PK11195] as the compound, how does the “Bmax (maximal binding capacity)” value [5] read?
**A.** 6,471±1,584 fmol/mg protein

**Q.** What about the “Bmax (maximal binding capacity)” value [6] of the same compound?
**A.** 3133±643 fmoles/mg protein

**Q.** And the “non-specific binding as part of total binding” value [6]?
**A.** a third

**Q.** What about the Bmax [7] of the same compound?
**A.** 6956±5492 fmoles/mg protein

**Q.** And the “non-specific binding as part of total binding” value [7]?
**A.** 25±3.2%

**Q.** What about the “maximum amount of specifically bound ligand (Bmax)” value [8] of the same compound?
**A.** 3274±787 pmol/mg of protein

**Q.** What about the “mean TSPO binding” value ([9]; control group (non-smokers), n=16) of the same compound?
**A.** 1,480±1,157

**Q.** And the “mean TSPO binding” value ([9]; smokers group, n=9)?
**A.** 694±264

**Q.** What about the “mean TSPO binding lower in smokers than control group” value ([9]; smokers vs control group) of the same compound?
**A.** 53%

**Q.** With `CCCCCCN(CCCCCC)C(=O)Cc1c(-c2ccc(F)cc2)[nH]c2ccccc12` [FGIN-1-27] as the compound, how does the “binding affinity lower than that of PK11195” value ([1]; human saliva) read?
**A.** two orders of magnitude

**Q.** And the Ki [1, 10]?
**A.** 150 nM

**Q.** And the IC50 [2, 11]?
**A.** 152 ± 19 nM

**Q.** And the “potency … fold lower than PK11195” value [2]?
**A.** 17 times

**Q.** What about the IC50 [3, 12] of the same compound?
**A.** 164 nM
